Earlier results, collected in publication PMC5266543 (ACS infectious diseases, 2016).

Test system: M. tuberculosis H37Rv
Details: cited from earlier work

In the case of `CC(=O)N(O)CCCP(=O)(O)O` [Compound 2, FR900098], the “MIC against Mtb” value is listed as “essentially inactive”.
